Laboratory results published in paper PMC12498288 (Frontiers in Immunology, 2025).
Where “and” joins values, the source holds several entries; their conditions need not be identical. Equal values may be shown once. Read-outs that look alike come from different tables or passages of the source.

Assays:
[1] = test system: cytokine and chemokine gene expression; assay: LPS-induced acute lung injury (ALI) mouse model, lung cytokine/chemokine mRNA (RT2 profiler PCR array)
[2] = test system: SARS-CoV-2 (BetaCoV/Munich/BavPat1/2020)
Vero cells = details: Vero 24 h 5% FBS
HCoV 229E = assay: Virus yield reduction assay, HCoV-229E on MRC-5 cells (RT-qPCR); format: cell-based; details: Human coronavirus 229E, MRC5, MOI 0.001, 48 h
Description: (§1) The virus yield reduction assay of HCoV-229E and HCoV-OC43 was performed on MRC-5 cells seeded at 1.5x10^5 cells per well in 24-well plates 24 h prior infection with HCoV-229E (MOI 0.001) or HCoV-OC43 (MOI 0.1) for 1 h. The inoculum was completely removed, and the cells were treated with different concentrations of zapnometinib (50 µM to 0.006 µM) and a solvent control in Iscove’s Modified Dulbecco’s Medium (IMDM) containing 2% FBS, 1% Penicillin/Streptomycin at 34°C, 5% CO2 for 24 h (HCoV-OC43) or 48 h (HCoV-229E). Supernatants were harvested and the viral titer was determined by a real-time one-step multiplex RT-qPCR using specific primers targeting the N and NS2 genes for HCoV-229E and HCoV-OC43 respectively ( Supplementary Table 1 ) EC50 values were calculated based on the measured viral titers normalized to the solvent control (1% DMSO) and using the “log(inhibitor) vs. response - Variable slope (four parameters)” analysis in GraphPad Prism v9.

HMGB1, GLDH, SELP = assay: Candidate safety biomarker analysis in hamster serum (IA-LC-MS/MS); format: in vivo, Syrian hamsters
Description: Serum samples from hamsters collected at pre- infection (0 dpi) and post-infection (4 dpi) and treatment time points were analyzed to evaluate the levels of various candidate safety biomarkers. Serum proteins were enzymatically fragmented through proteolysis, and protein-specific peptides were targeted for quantification of the corresponding protein biomarker levels by immunoaffinity liquid chromatography tandem mass spectrometry (IA-LC-MS/MS) performed as described previously ([48], [49]). For further details, see Supplementary Methods .
The candidate protein biomarkers were quantified via specific peptides analyzed by immunoaffinity liquid chromatography tandem mass spectrometry (IA-LC-MS/MS) assays. For proteolysis, 10 μL of each serum sample was mixed with 50 μL of digestion buffer (100 mM triethanolamine and 0.5% (w/v) n-octylglucoside (NOG)), and proteolysis reagents were added to achieve a final sample volume of 100 µL. The proteolysis procedure included denaturation at 99 °C for 5 minutes, reduction in 5 mM tris(2-carboxyethyl)-phosphine at 22 °C for 5 minutes, alkylation in 10 mM iodoacetamide at 22 °C for 20 minutes and an overnight enzymatic fragmentation at 37 °C with a trypsin-to-protein ratio of 1:20 (assuming a concentration of 60 mg/mL protein in serum). […]
The following peptide transitions were monitored in the mass spectrometer : […] […]

[3] = parameters: method as in NCT04385420; EudraCT 2021-005225-25; details: two phase 1 studies in healthy volunteers, ref NCT04385420; EudraCT 2021-005225-25; cited from earlier work
SARS-CoV-1 = assay: microbe, parasite or virus in culture; format: cell-based, SARS-CoV-1 (SARS-CoV-HKU-39849); details: Severe acute respiratory syndrome coronavirus, Vero
HCoV OC43 = assay: Virus yield reduction assay, HCoV-OC43 on MRC-5 cells (RT-qPCR); format: cell-based; details: Betacoronavirus 1, OC43, MRC5, MOI 0.1, 24 h
Description: as §1

## O=C(O)c1ccc(F)c(F)c1Nc1ccc(I)cc1Cl [zapnometinib]
[1]; 5 mg/kg LPS i.p., 25 mg/kg p.o. 1 h post-stimulation, lung, 6 h post treatment, vs control
  expression of most of the 84 genes (e.g. Il1b, IL-6, ccl2, cxcl1, cxcl10, ccl3): downregulated
[1]; 25 mg/kg p.o. 1 h after LPS
  Cxcl1 gene expression in lung tissue: significantly reduced
  Il6 gene expression in lung tissue: significantly reduced
  Tnf gene expression in lung tissue: significantly reduced
[1]; 25 mg/kg p.o. 1 h after LPS, lung, p = 0.118
  Ifna2 gene (IFN-α) expression: not significantly downregulated
[2]; 100 mg/kg then 75 mg/kg daily p.o., both groups
  tolerability: well tolerated
[2]; […], did not reach statistical significance
  viral titers in nasal turbinates: trend toward lower mean viral titers
[2]; hamster, in vivo
  lung inflammation (infiltrating inflammatory cells, consolidation, decreased air containing space): less severe
  mean body weight loss: 8-11%
  mean viral titer in throat swabs: still lower in the throat swabs of drug-treated animals, although no statistically significant differences
  percentage of lung injury in lung tissue (gross pathology): significantly reduced
  reduction in replication-competent virus in throat swabs (TCID50 assay): 1.1 log10 and 1.3 log10
  reduction of infectious viral titer in nasal turbinates (TCID50 assay): 1.3 log10
  reduction of viral load in nasal turbinates (RT-qPCR): 1.1 log10
  viral load in throat swabs: comparable
  viral titer reduction (number of viral copies) in throat swabs (RT-qPCR): 1.1 log10 and 1.2 log10
[2]; zapnometinib-treated groups vs vehicle-treated group
  treatment-related adverse effects: no treatment-related adverse effects were observed
Vero cells; 0.39 µM
  %LDH release compared to maximum LDH release: 0.35%
Vero cells; 0.78 µM
  %LDH release compared to maximum LDH release: 0.41%
Vero cells; 1.56 µM
  %LDH release compared to maximum LDH release: 0.41%
Vero cells; 3.13 µM
  %LDH release compared to maximum LDH release: -0.37%
Vero cells; 6.25 µM
  %LDH release compared to maximum LDH release: 0.02%
Vero cells; 12.50 µM
  %LDH release compared to maximum LDH release: 0.31%
Vero cells; 25.00 µM
  %LDH release compared to maximum LDH release: 0.12%
Vero cells; 50.00 µM
  %LDH release compared to maximum LDH release: 0.49%
Vero cells; 75.00 µM
  %LDH release compared to maximum LDH release: 0.83%
Vero cells; 100.00 µM
  %LDH release compared to maximum LDH release: 1.44%
HCoV 229E
  EC50: 26.6 µM and 10.9 µg/mL
HMGB1, GLDH, SELP; 0 dpi vs 4 dpi, 100 mg/kg then 75 mg/kg from +4 or +24 h p.i.
  levels of safety biomarkers HMGB1, GLDH, SELP in serum: no prominent changes
HMGB1, GLDH, SELP; 100 mg/kg followed by 75 mg/kg beginning at +4 or +24 h p.i.
  toxicity of the treatment regimen: not toxic
[3]
  toxicity and tolerability in humans: showed no toxicity and was well tolerated
SARS-CoV-1
  EC50: 33.6 µM and 13.8 µg/mL
HCoV OC43
  EC50: 16.1 µM and 6.6 µg/mL
